Test results published in BigSolDB 2.1.

CC1=C(C(=O)O)N2C(=O)[C@@H](NC(=O)[C@H](N)C3=CCC=CC3)[C@H]2SC1
solubility (mole fraction)
Details	283.15 K	285.15 K	288.15 K	291.15 K	293.15 K	298.15 K	303.15 K	308.15 K
in ethanol	0.000187	0.000195	0.000217	0.000233	0.000249	0.000299	0.000368	0.000442
in methanol	0.000575	0.00061	0.00065	0.000702	0.000738	0.000845	0.000955	0.00108
in n-butanol	0.000265	0.000288	0.000335	0.000369	0.000405	0.000478	0.000567	0.000657
in n-propanol	0.00019	0.000198	0.000214	0.000238	0.000253	0.000319	0.000381	0.000469
in water	0.00114	–	0.00115	–	0.00116	0.00117	0.00118	0.0012
